From PMC6754346, “Compounds with capacity to quench the tyrosyl radical in Pseudomonas aeruginosa ribonucleotide reductase” (Journal of Biological Inorganic Chemistry, 2019)

Key:
[1] = molecular target: P. aeruginosa RNR active holoenzyme (NrdA/B complex) (Pseudomonas aeruginosa, UniProt Q9I4I1+Q9I4I2); experiment: EPR, tyrosyl radical quenching in holoenzyme; format: biochemical; conditions: 133 µM compound, 12 µM each NrdA and NrdB, 5 mM ATP, 10 mM magnesium acetate, 30 mM DTT, 50 mM Tris pH 7.5; corrected for control decay
Description: EPR, tyrosyl radical quenching in holoenzyme on P. aeruginosa RNR active holoenzyme (NrdA/B complex)

NrdB = molecular target: T1, NrdB (Pseudomonas aeruginosa, UniProt Q9I4I2); experiment: EPR, tyrosyl radical quenching; format: biochemical; conditions: 133 µM compound, 15 µM Fe-reconstituted NrdB, 50 mM Tris pH 7.5, 1% DMSO, no DTT; corrected for control decay
T1 construct: homodimer concentrations; apoNrdB reconstituted with Fe2+ for EPR
Description: EPR, tyrosyl radical quenching on NrdB

T1 sequence (Q9I4I2 1-415): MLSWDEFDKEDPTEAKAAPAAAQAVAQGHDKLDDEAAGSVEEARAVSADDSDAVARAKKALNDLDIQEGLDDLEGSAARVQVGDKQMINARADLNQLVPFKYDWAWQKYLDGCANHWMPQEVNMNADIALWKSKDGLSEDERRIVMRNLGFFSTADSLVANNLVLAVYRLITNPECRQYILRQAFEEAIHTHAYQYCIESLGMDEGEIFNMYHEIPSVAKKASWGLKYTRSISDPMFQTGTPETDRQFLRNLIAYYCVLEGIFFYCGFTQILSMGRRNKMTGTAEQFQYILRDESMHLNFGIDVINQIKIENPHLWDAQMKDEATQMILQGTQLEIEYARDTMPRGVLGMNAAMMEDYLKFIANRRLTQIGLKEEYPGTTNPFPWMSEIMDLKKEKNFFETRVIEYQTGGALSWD
P. aeruginosa RNR active holoenzyme (NrdA/B complex), sequence (Q9I4I1 1-963): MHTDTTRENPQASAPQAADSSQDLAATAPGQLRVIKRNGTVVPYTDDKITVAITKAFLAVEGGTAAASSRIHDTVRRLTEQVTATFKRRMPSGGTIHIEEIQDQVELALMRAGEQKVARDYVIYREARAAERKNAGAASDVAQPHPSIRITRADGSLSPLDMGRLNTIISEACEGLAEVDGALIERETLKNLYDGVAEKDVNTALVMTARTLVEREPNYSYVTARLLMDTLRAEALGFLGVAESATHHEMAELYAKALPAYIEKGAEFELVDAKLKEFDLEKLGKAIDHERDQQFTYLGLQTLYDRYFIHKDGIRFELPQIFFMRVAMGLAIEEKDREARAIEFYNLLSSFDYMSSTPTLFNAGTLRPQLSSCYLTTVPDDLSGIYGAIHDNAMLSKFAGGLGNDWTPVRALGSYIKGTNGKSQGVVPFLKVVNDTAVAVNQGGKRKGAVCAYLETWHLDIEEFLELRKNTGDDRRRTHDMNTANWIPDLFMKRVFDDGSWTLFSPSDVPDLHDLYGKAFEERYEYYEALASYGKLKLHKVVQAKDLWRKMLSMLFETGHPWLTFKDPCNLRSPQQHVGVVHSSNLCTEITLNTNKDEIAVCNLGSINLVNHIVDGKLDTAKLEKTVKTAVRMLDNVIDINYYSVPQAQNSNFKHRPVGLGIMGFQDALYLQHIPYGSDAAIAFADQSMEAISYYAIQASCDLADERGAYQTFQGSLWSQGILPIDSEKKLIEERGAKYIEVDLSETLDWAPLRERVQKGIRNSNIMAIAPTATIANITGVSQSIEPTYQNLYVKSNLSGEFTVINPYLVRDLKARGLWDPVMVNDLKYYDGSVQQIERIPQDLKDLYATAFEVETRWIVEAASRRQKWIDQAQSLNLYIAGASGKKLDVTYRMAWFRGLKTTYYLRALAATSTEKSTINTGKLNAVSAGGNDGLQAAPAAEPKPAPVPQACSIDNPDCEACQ
P. aeruginosa RNR active holoenzyme (NrdA/B complex), sequence (Q9I4I2 1-415): as the sequence (Q9I4I2 1-415) above

SMILES	Tyrosyl radical decay rate [1] [min⁻¹]	Tyrosyl radical decay rate and radical left after 10 min / NrdB only^a (NrdB) [min⁻¹]
COc1ccc(C2=NC(=O)NC2c2ccc(OC)cc2)cc1 (stereo not drawn) [compound 26692, NSC26692]	0.18 ± 0.19	–
COc1cc(-c2ccc(Nc3ccccc3C(=O)O)c(OC)c2)ccc1Nc1ccccc1C(=O)O [compound 73735, NSC73735]	0.67 ± 0.01	–
CCc1oc2ccccc2c1C(=O)c1cc(Br)c(O)c(Br)c1 [compound 85433, NSC85433]	0.33 ± 0.03	–
CC(=O)c1cc(O)c2ccccc2c1O [compound 111552, NSC111552]	0.43 ± 0.32	0.19 ± 0.03
N#Cc1c(C#N)c(O)c2ccccc2c1O [compound 128281, NSC128281]	0.43 ± 0.03	0.30 ± 0.07
CCOC(=O)/C=C(/C)Sc1cc(O)c2ccccc2c1O [compound 278631, NSC278631]	–	0.40 ± 0.06
O=C(Nc1ccc(Cl)c(Cl)c1)Nc1ccccc1O [compound 522131, NSC522131]	–	0.35 ± 0.04
